Measured values as given in the supplement of paper PMC8837787.

Tested on: Saccharomyces cerevisiae ABC16-Green Monster
Assay: growth inhibition at single dose (up to 150 µM), below the 70% cut-off for dose-response; higher = more potent
Conditions: 18 h; 30 °C; YPD
Summary of the method: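 Drug-sensitive S. cerevisiae ABC16-Green Monster cells were grown overnight in YPD at 30 °C and diluted to log phase (OD600 0.1–0.2). Each library compound was added at one dose of 150 µM to 200 µl culture per well in 96-well plates, in biological duplicates, with untreated cultures alongside. OD600 was read at 0 h and after 18 h at 30 °C. The value is percent growth inhibition; compounds below 70% in both replicates were not taken to dose-response.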

SMILES	growth inhibition at single dose [%]
COc1ccc(Nc2nc(NN=Cc3ccc(O)cc3)nc(Nc3ccc([N+](=O)[O-])cc3)n2)cc1	< 70
O=C(NNc1cc(N2CCCC2)nc(N2CCCC2)n1)c1ccccc1	< 70
CCOc1ccc(-c2nc(CC(=O)NCc3ccnc(OC)c3)cs2)cc1	< 70
COc1ccc2c(c1)CCCN2C(=O)c1occc1C	< 70
c1ccc(SCc2ccc(-c3nc4ccccc4s3)cc2)nc1	< 70
Cc1cc(C)n(-c2ccc(NC(=O)C3CCN(Cc4cnc(C)s4)CC3)cc2)n1	< 70
Cc1cc(Nc2ccncc2)n2nc(C)c(-c3ccccc3Cl)c2n1	< 70
COc1ccc(C(=O)NC(c2ccc(Cl)cc2Cl)c2cc(Cl)c3cccnc3c2O)cc1 (centres undefined)	< 70
Nc1nc2ccc(-c3cncc(Oc4ccc(F)cc4)c3)cc2[nH]1	< 70
CCn1c(CN2CCN(Cc3ccccc3)CC2)nc2cc(NC(=O)c3cccs3)ccc21	< 70
COc1ccc(-c2csc3ncnc(NCC(=O)NC(C)C)c23)cc1	< 70
Cn1c(N)c(C(=O)COC(=O)C2(c3ccc(Cl)cc3)CCCC2)c(=O)n(C)c1=O	< 70
Nc1nccc2ccc(-c3ccc4nccn4c3)cc12	< 70
CNC(=O)c1ccc(CN(C2CC2)S(=O)(=O)c2cc(C)ccc2C)cc1	< 70
Cc1ccc(NC(=O)c2cnn(C(C)(C)C)c2C)cc1F	< 70
CCCS(=O)(=O)c1cnc(C2COc3ccccc3O2)nc1N (centres undefined)	< 70
Cc1ccccc1OCCSc1nc2ccc(NC(=O)c3ccccc3)cc2s1	< 70
OC1=C2C(=Nc3ccccc3SC2c2ccc(Br)cc2)c2ccccc21 (centres undefined)	< 70
COc1ccc(-c2nonc2NC(=O)c2cccc(Cl)c2)cc1OC	< 70
O=C(NC(=O)c1csnn1)Nc1cc(C(F)(F)F)cc(C(F)(F)F)c1	< 70
Nc1ncc(-c2ccc(C(F)(F)F)nc2)cc1-c1ccc(C(F)(F)F)nc1	< 70
COc1ccc(OC(C)C(=O)Nc2ccc(Cl)cc2C)cc1 (centres undefined)	< 70
COc1ccc(C(C)=O)cc1N1C(=O)C2C(C1=O)C1(c3ccccc3)C(=O)C2(c2ccccc2)C(c2ccc(C)cc2)=C1c1ccc(C)cc1 (centres undefined)	< 70
CN(C)CCNc1nc(-c2ccco2)c2c(c1C#N)CCCC2	< 70

SMILES	growth inhibition at single dose [%]
CC(C(=O)N1CCCC1)N1CCN(S(=O)(=O)c2ccc(C(C)(C)C)cc2)CC1 (centres undefined)	< 70
CCC(=O)Nc1ccccc1C(=O)Nc1ccccn1	< 70
Cc1ccc(NC(=O)c2[nH]nc3c2CCCC3)cc1Cl	< 70
CNCCCNc1ccnc2cc(Cl)ccc12	< 70
COc1ccc2c(c1)CCCC21NC(=O)N(Cc2cc(=O)n3cc(C)ccc3n2)C1=O (centres undefined)	< 70
Cc1ccc(/C=C/C(=O)NC2=NCCS2)c(Br)c1	< 70
O=C1C2=C(Nc3ccccc3SC2c2ccccc2)c2ccccc21 (centres undefined)	< 70
CCOC(=O)C1=C(C)N=c2sc(=Cc3cc(Cl)ccc3O)c(=O)n2C1c1ccc(OC)cc1 (centres undefined)	< 70
O=C(NC1CC1)c1ccc(CSCc2ccccc2Cl)o1	< 70
Cc1c(-c2ccccc2)sc2[nH]c(CC(N)=O)nc(=O)c12	< 70
Cc1cc2nnc(-c3ccc(C(F)(F)F)cc3)n2[nH]1	< 70
COc1ccc(CCNc2ncnc3sc(C)cc23)cc1OC	< 70
O=C(C1CCN(c2nnc(-n3cccc3)s2)CC1)N1CCC(Cc2ccccc2)CC1	< 70
CCN(CC)CCN1COc2c(cc(Cl)c3cccnc23)C1	< 70
COc1ccc2nc(C)cc(OCC(=O)NCc3ccccc3)c2c1	< 70
O=C(CN1CCN(C(=O)/C=C/c2sc3ccccc3c2Cl)CC1)NC1CC1	< 70
C[C@]1(O)C[C@@H](c2nc(-c3ccc4ccc(-c5ccccc5)nc4c3)c3c(N)nccn32)C1	< 70
COc1cc2c(cc1NC(=O)C(C)N1CCC(C(N)=O)CC1)oc1ccccc12 (centres undefined)	< 70
CC(C)(C)CC(C)(C)NCC(O)COc1ccc2c(c1)CCC2 (centres undefined)	< 70
CC(=O)NCCCc1ccc(C(=O)COC(=O)c2ccccc2-n2cnnn2)cc1	< 70
FC(F)(F)c1cccc(CNc2ncnc3sccc23)c1	< 70
O=C(NC1CC1)c1ccc(CN(Cc2ccco2)Cc2nc(-c3ccc(F)cc3)no2)cc1	< 70
Cc1cc(C(=O)NCC#Cc2cccc(C(F)(F)F)c2)on1	< 70
Oc1c2c(nc3ccccc13)CCCC2	< 70

SMILES	growth inhibition at single dose [%]
O=C(c1ccc(NCCO)cc1)C1C[C@H]1c1ccc(Cl)cc1 (some centres undefined)	< 70
CCCn1nnc(NC(=O)COc2ccc(C3CCCCC3)cc2)n1	< 70
Cn1ccnc1SCC(=O)Nc1ccc(C(=O)Nc2ncccc2O)cc1	< 70
O=C(NC1CCN(Cc2ccccc2)CC1)c1cc(-c2ccncc2)nc2ccc(Cl)cc12	< 70
CC(C)(C)c1cnc(NC(=O)c2ccccc2O)s1	< 70
O=C1C=C/C(=N\Nc2ccc3ccccc3c2)c2cccnc21	< 70
Cc1cccc(NC(=O)c2cc(S(=O)(=O)N(C)c3ccc(F)cc3)ccc2Cl)n1	< 70
COc1ccc(C=C2SC(Nc3ccc(F)cc3)=NC2=O)c(OC)c1	< 70
CC1Cc2cc(C(=O)CSc3nnc(Cc4cccs4)n3C)ccc2N1S(C)(=O)=O (centres undefined)	< 70
O=C(NC1CCCC1)c1ccc(N2CCC(NCc3cccc(C(F)(F)F)c3)CC2)cc1	< 70
CCOc1ccc(OCC(=O)Nc2cc(C)cc(C)c2)cc1	< 70
COc1cc(C2=NCCN2)cc2cc(-c3ccc(C4=NCCN4)cc3)oc12	< 70
N#CCN(CCCCN1CCN(c2ccc(F)cc2)CC1)C(=O)OCc1ccccc1	< 70
COc1ccc2nc(C)cc(Nc3ccc(Cl)cc3)c2c1	< 70
COc1ccc(NC(=O)C2c3ccccc3C(=O)N(CC(C)C)C2c2cccs2)cc1Cl (centres undefined)	< 70
COC(=O)c1ccc(Cl)c2c1C1C=CCC1C(c1cccc3ccccc13)N2 (centres undefined)	< 70
Cc1cc(C)c2cc(C(=O)Nc3ccc(N4CCN(C)CC4)nc3)[nH]c2c1	< 70
c1ccc2sc(-c3nc4ccccc4s3)nc2c1	< 70
Cc1cc(-c2nc(=O)c3ccccc3[nH]2)c(C)n1CC(C)C	< 70
O=C1COCc2ccc(Br)cc2N1Cc1ccc(C(F)(F)F)cc1	< 70
CNc1nnc(Sc2cnn(-c3ccccc3)c(=O)c2Cl)s1	< 70
O=C(Nc1ncccc1O)c1ccc(N2CCOCC2)nc1	< 70
O=C1N/C(=N\C2CCCC2)S/C1=C\c1ccc2c(c1)OCCO2	< 70
O=C(Nc1nc2c(s1)CCC2)c1cnn(-c2ccccc2)c1C1CC1	< 70

SMILES	growth inhibition at single dose [%]
Cc1nccc(-c2cccc(N/N=C(\C#N)S(=O)(=O)c3ccccn3)c2)n1	< 70
CCCCOc1ccc(C(=O)Nc2cc(C)on2)cc1	< 70
Cc1nn(Cc2ccccc2)c(Cl)c1C(=O)NC1CCCCCC1	< 70
C=C(C)CCC(C)N1CCC(N2CCC(C(=O)NCCc3ccccc3)CC2)CC1 (centres undefined)	< 70
CCOc1ccc(CCNC(=O)c2cccs2)cc1OCC	< 70
CCCn1nc(C(=O)Nc2ccccc2N2CCc3ccccc3C2)ccc1=O	< 70
COc1ccc(CN=C2NN=C(c3cc4ccccc4o3)CS2)cc1	< 70
CC(C)(C)CC(C)(C)NCC(O)COc1ccc(Cl)cc1Cl (centres undefined)	< 70
O=C(O)c1c2c(nc3ccccc13)/C(=C/c1ccccc1Cl)CC2	< 70
CCCCC(O)(c1ccc(Cl)cc1)C(CN1CCOCC1)c1ccc(Cl)cc1 (centres undefined)	< 70
COC(=O)c1c(C)[nH]c(C(=O)Nc2ccc(C)cn2)c1C	< 70
CSC1=NC(=Nc2c(C)cccc2C)C2(CCC(C(C)(C)C)CC2)N1c1ccc(Cl)cc1 (centres undefined)	< 70
O=C(c1cnn(C(=O)c2nn(-c3ccc(Cl)cc3)cc2O)c1)c1ccccc1O	< 70
c1ccc(C[C@@H]2CN(c3nccc(Oc4ccc(-n5ccnc5)cc4)n3)CCN2)cc1	< 70
O=C(N[C@H](Cc1ccccc1)C(=O)Nc1ccccc1N1CCOCC1)c1cccs1	< 70
COc1ccc(CCN2CCC(CN(C)Cc3cnn(-c4ccccc4)c3)CC2)cc1	< 70
CC(=O)NC[C@H]1CN(c2ccc(N3CCSCC3)c(F)c2)C(=O)O1	< 70
Clc1cc(Br)ccc1-c1ccc(CNCC2CCNCC2)o1	< 70
Clc1ccc2[nH]c3c(NCCCN4CCOCC4)ncnc3c2c1	< 70
CCCCCCc1cc2cc(-c3nc4ccccc4[nH]3)c(=Nc3ccccc3C)oc2cc1O	< 70
CC(=O)c1c[nH]c(C(=O)OCC(=O)NCCc2ccc(C(C)C)cc2)c1	< 70
CCOC(=O)c1c(C)[nH]c(C(=O)Nc2cccc(C)n2)c1C	< 70
